Laboratory results: patent US6090824A, “Therapeutic neurokinin receptor antagonist compounds” (Zeneca Limited, priority 1995, dated 2000)
pKi: −log10 of the molar value.

Legend:
[1] = molecular target: T1, human NK1 receptor (Homo sapiens, UniProt P25103); assay: SP Receptor Binding Assay (Test A); conditions: human NK1 receptor in MEL cells
T1 construct: expressed in transfected cells; host or cells: Mouse Erythroleukemia (MEL) cells
Excerpt: SP Receptor Binding Assay (Test A)
The human NK1 receptor was isolated and characterized as described in: B. Hopkins, et al. "Isolation and characterization of the human lung NK1 receptor cDNA" Biochem. Biophys. Res. Comm., 1991, 180, 1110-1117; and the NK1 receptor was expressed in Mouse Erythroleukemia (MEL) cells using a procedure similar to that described in Test B below.
(§1) The selectivity of a Compound for binding at the NK1 and the NK2 receptors may be shown by determining its binding at other receptors using standard assays, for example, one using a tritiated derivative of NKB in a tissue preparation selective for NK3 receptors.

[2] = molecular target: T2, human NK2 receptor (Homo sapiens, UniProt P21452); assay: Neurokinin A (NKA) Receptor Binding Assay (Test B); conditions: human NK2 receptor in MEL cells
T2 construct: expressed in transfected cells; host or cells: Mouse Erythroleukemia (MEL) cells
T2 sequence (P21452 1-398): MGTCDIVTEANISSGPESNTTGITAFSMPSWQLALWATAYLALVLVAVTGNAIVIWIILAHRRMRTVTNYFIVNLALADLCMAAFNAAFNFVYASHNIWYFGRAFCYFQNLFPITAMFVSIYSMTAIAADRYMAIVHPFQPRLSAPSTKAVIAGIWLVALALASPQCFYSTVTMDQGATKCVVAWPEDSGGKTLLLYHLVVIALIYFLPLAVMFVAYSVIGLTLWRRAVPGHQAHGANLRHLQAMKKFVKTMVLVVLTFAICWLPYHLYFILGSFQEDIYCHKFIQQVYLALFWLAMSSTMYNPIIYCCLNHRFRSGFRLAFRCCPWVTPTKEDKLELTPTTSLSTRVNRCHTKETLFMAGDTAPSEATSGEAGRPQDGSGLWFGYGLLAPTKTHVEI
Excerpt: Neurokinin A (NKA) Receptor Binding Assay (Test B)
as §1

T1 sequence (P25103 whole entry): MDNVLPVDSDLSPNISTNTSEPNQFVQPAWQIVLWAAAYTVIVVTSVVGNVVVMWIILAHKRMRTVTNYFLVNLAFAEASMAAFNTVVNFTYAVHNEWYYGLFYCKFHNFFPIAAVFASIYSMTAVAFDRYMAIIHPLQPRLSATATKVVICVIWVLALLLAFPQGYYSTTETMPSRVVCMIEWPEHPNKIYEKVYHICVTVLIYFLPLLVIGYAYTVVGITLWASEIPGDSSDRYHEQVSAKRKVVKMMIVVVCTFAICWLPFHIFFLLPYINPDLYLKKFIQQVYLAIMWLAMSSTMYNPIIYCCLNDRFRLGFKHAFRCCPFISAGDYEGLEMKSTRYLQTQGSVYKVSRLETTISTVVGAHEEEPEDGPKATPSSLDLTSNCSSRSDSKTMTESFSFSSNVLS

- pKi [1]: 6.79
- pKi [2]: 8.17
SMILES: CC(=O)NC1(c2ccccc2)CCN(CCC(OC(=O)NCc2ccccc2)c2ccc(Cl)c(Cl)c2)CC1 (centres unmarked) [Example 1, N-Benzyl-3-(4-acetamido4-phenylpiperidino)-1-(3,4-dichlorophenyl)propyl carbamate]
